Assay results published in paper PMC11336009 (GeroScience, 2024).
Read-outs that look alike come from different tables or passages of the source.

How the values were obtained:
[1] = test system: 6-OHDA unilateral medial forebrain bundle lesioned rat; experiment: BrdU immunoreactivity (neurogenesis marker) in SVZ and striatum of 6-OHDA lesioned rats; assay type: in vivo; settings: delayed treatment 30 mg/kg daily p.o.; BrdU 50 mg/kg i.p. day 8 to 20; day 21
Protocol: Gliptin treatment was initiated either prior to or after 6-OHDA lesioning (early and delayed treatment, respectively) as follows. […]. An estimated dose for a 250-g rat under this treatment was 10 mg/kg/day. […]. An estimated, clinically relevant, dose for a 250 g rat under this treatment was thus 30 mg/kg/day. Specifically for drug admixture into diet, drug was solubilized in 100% ETOH that was then added to the 16.2 g of food chow. Thereafter, the ETOH was evaporated off. […] Animals were weighed twice weekly and the amount of drug added to the chow was modified accordingly to maintain the daily required dose. […]. […] Specifically, the 10 mg/kg oral daily drug dose in our rat studies is equivalent to the routine human daily oral dose (100 mg in a 65 kg human) of these gliptins used in T2DM, and the 30 mg/kg rat dose is equivalent to a threefold higher dose that is well-tolerated in humans.
Following the exact same protocol described in Yin et al., 2012 [34] and Harvey et al. 2004 [36], anesthetized rats were subjected to a 6-OHDA unilateral medial forebrain bundle lesion. Briefly, 6-OHDA (2.27 µg/µL × 5 µL in 0.9% NaCl containing 0.2 mg/ml ascorbic acid) was unilaterally injected into the medial forebrain bundle (-4.4 mm AP, 1.2 mm ML relative to bregma and 8.4 mm below skull) over 4 min through a syringe pump (Micro 4, WPI, Sarasota, FL), as approved under National Health Research Institutes, Taiwan, Protocol # 102,068-A; 102,102-A. Following this procedure, all animals were monitored daily for adverse signs of health for 1 week (in line with the approved protocols).
BrdU (Sigma-Aldrich, St. Louis, MO) was injected parenterally (i.p.) from day 8 to day 20 after 6-OHDA lesioning at the dose of 50 mg/kg/day as a marker of neurogenesis. Animals were euthanized for immunostaining on day 21.
BrdU and TH localization was determined by immunohistochemistry. Serial sections of the entire brain were cut at 30 μm thickness by cryostat. One series from every sixth section was stained for TH. To control for staining variability, specimens from all experimental groups were included in every batch and reacted together in a net well tray under the same conditions. Sections were rinsed in 0.1 M phosphate buffer (PB), blocked with 4% bovine serum albumin (BSA) and 0.3% Triton x-100 in 0.1 M PB. […]
TH immunoreactivity and BrdU cell number in striatum were averaged from 3 brain sections with visible anterior commissure in each animal. TH immunoreactivity in SNc was measured every 6th Sect. […] Nigral volume was analyzed using Cavalieri's method.

[2] = test system: 6-OHDA unilateral medial forebrain bundle lesioned rat; experiment: Methamphetamine-induced rotation in unilateral 6-OHDA lesioned rats; assay type: in vivo; settings: for Meth-induced ipsilateral rotation vs vehicle: early treatment 10 mg/kg daily p.o. from 7 days before lesioning, meth 2.5 mg/kg s.c. on days 20 and 30
GLP-1 and GIP = experiment: Active GLP-1 and GIP measurement in rat plasma and CSF (ELISA); assay type: in vivo; settings: 30 mg/kg daily p.o. day 7 to 45, day 45
Protocol: Plasma was obtained from whole blood samples at the time of euthanasia (centrifugation 10,000xG 60 s at 4 °C), and CSF was obtained from the cisterna magna. Samples were evaluated by ELISA using kits from IBL (Immuno-Biological Laboratories, Inc.) or from Millipore, following their protocols.

[3] = test system: TNF-α, IL-6, Iba-1 and GFAP; experiment: Neuroinflammatory measures in brain (TNF-α, IL-6 ELISA; Iba-1, GFAP Western blot); assay type: in vivo, rat; settings: 30 mg/kg daily p.o. day 7 to 45; day 45
Protocol: To quantify rat brain cytokine levels, brain tissues were homogenized in TPER (Tissue Protein Extraction Reagent) (ThermoFisher Scientific) using a Biomasher Homogenizer. Inhibitors of phosphatase and protease were added into the TPER to prevent protein degradation. Tissues were then sonicated for 10 pulses and centrifuged at 10,000 g for 10 min at 4 °C. The supernatant was used to measure brain cytokine levels using rat TNF-α ELISA kits from e-Bioscience (San Diego, CA, USA) and rat IL-6 ELISA kits from Biolegend (San Diego, CA, USA). The final results were normalized to protein content, as measured by BCA (bicinchoninic acid) assay. Brain tissue Iba-1 and GFAP levels were quantified by Western blot (Iba-1 and GFAP antibodies Santa Cruz Biotechnology, Inc.) and used in 1:100 dilution).

[4] = Rat pharmacokinetic study: plasma and brain levels after single oral dose; assay type: in vivo; settings: male, Sprague-Dawley; for concentration at 105 min: po, 10 mg/kg, mean ± SEM
Protocol: A blood sample was obtained and the plasma was separated (10,000 G, 60 s, 4 °C) and frozen to -80 °C. The vasculature was immediately cleared with physiological saline, and a section through the right cerebral hemisphere was obtained and flash frozen to -80 °C.

[5] = test system: 6-OHDA unilateral medial forebrain bundle lesioned rat; experiment: Dopamine measurements by HPLC in striatum and SNc of 6-OHDA lesioned rats; assay type: in vivo; settings: delayed treatment, low dose 10 mg/kg daily p.o. from day 7
Protocol: Gliptin treatment was initiated either prior to or after 6-OHDA lesioning (early and delayed treatment, respectively) as follows. […] An estimated dose for a 250-g rat under this treatment was 10 mg/kg/day. […] An estimated, clinically relevant, dose for a 250 g rat under this treatment was thus 30 mg/kg/day. Specifically for drug admixture into diet, drug was solubilized in 100% ETOH that was then added to the 16.2 g of food chow. Thereafter, the ETOH was evaporated off. […] Animals were weighed twice weekly and the amount of drug added to the chow was modified accordingly to maintain the daily required dose.
Brain samples were collected at 45 days after 6-OHDA lesioning. Striatal and SNc tissues were weighed and stored at − 80 °C until extraction. The tissues obtained from each animal were homogenized in 0.1 M perchloric acid and centrifuged at 13,000 g for 15 min. DA levels were measured by HPLC with electrochemical detection [47]. The analytical column was a Symmetry C18 3.5 µm (4.6 × 150.0 mm) from Waters (Milford, MA). The mobile phase consisted of 0.01 M sodium dihydrogen phosphate, 0.01 M citric acid, 2 mM sodium EDTA, 1 mM sodium octylsulfate, 10% methanol, pH 3.5 and was used at flow rate of 0.9 ml/min and a temperature of 25 °C. […] DA content was calculated as nmole/g of tissue weight.

high-fat-fed mice = settings: cited from earlier work
P-glycoprotein = settings: at the level of the kidney; cited from earlier work
rat rotenone model of PD = settings: cited from earlier work
[6] = delayed treatment 30 mg/kg daily p.o. from day 7 to 45, rotation on days 20, 30 and 40

Structure (SMILES) | BrdU labeling in the SVZ vs vehicle [1] | BrdU labeling in the lesioned striatum vs vehicle [1] | Meth-induced rotation vs vehicle [2, 6] | Meth-induced ipsilateral rotation vs vehicle [2] | CSF GIP level vs vehicle (GLP-1 and GIP; CSF) | Plasma GIP level vs vehicle (GLP-1 and GIP) | Plasma GLP-1 level vs vehicle (GLP-1 and GIP) | GFAP level on the lesioned side of brain (striatum) vs vehicle [3] | IL-6 level on the lesioned side of brain (striatum) vs vehicle [3] | Iba1 level on the lesioned side of brain (striatum) vs vehicle [3] | TNF-α level on the lesioned side of brain (striatum) vs vehicle [3] | further results
O=C([C@@H]1C[C@H](N2CCN(c3ncccn3)CC2)CN1)N1CCC(F)(F)C1 [PF-00734,200, Gosogliptin] | did not alter | significantly increased | significantly attenuated | significantly reduced | elevated | elevated | elevated | reduced levels | reduced levels | reduced levels | reduced levels | Meth-induced rotational behavior vs vehicle ([2]; delayed treatment, low dose 10 mg/kg daily p.o. from day 7): did not alter rotational behavior; Meth-induced rotation vs vehicle ([2]; i.c.v. 15.4 nmole 10 min prior to 6-OHDA lesioning, evaluated on day 30): no different from similarly vehicle-treated animals; CSF GLP-1 level vs vehicle (GLP-1 and GIP; CSF): elevated; concentration at 105 min ([4]; brain, rat brain, 105 min after oral 10 mg/kg, read-out: BrFree (brain free concentration)): 195 ± 34.9 nM; concentration at 105 min ([4]; brain, rat brain, 105 min after oral 10 mg/kg, read-out: BrTotal (brain total concentration)): 574 ± 103 nM; Kp at 105 min ([4]; brain/plasma, 105 min after oral 10 mg/kg, read-out: Br/Pl ratio (Total)): 0.62; concentration at 105 min ([4]; plasma, rat plasma, 105 min (predicted Cmax) after oral 10 mg/kg, n = 5 to 6, read-out: PlTotal (plasma total concentration)): 922 ± 206 nM; concentration at 105 min ([4]; plasma, rat plasma, 105 min after oral 10 mg/kg, read-out: PlFree (plasma free concentration)): 830 ± 185 nM; DA levels in SNc or striatum vs vehicle ([5]; 10 mg/kg): not significantly altered; DA levels in SNc or striatum vs vehicle ([5]; listed as PF‐00734,200, 10 mg/kg): did not alter DA level
N[C@@H](CC(=O)N1CCn2c(nnc2C(F)(F)F)C1)Cc1cc(F)c(F)cc1F [Sitagliptin] | did not alter | significantly increased | significantly attenuated | small but significant difference | elevated | elevated | elevated | reduced levels | reduced levels | reduced levels | reduced levels | Hippocampal neurogenesis (high-fat-fed mice): augmented hippocampal neurogenesis; Substrate for the multi-drug resistance transporter P-glycoprotein (P-glycoprotein): substrate; Effects in rat rotenone model of PD (rat rotenone model of PD): mitigated motor deficits, striatal DA loss, SNc dopaminergic neuronal degeneration and neuroinflammation
